Peptide text beside a SMILES is read from it. * marks the point of attachment. Cbz = O=C(OCc1ccccc1)*
Experiments:
ChtCP = target: T1, ChtCP (Chitinophaga sp. CB10, UniProt A0A822ZZF9); assay: Cd-ninhydrin assay of released amino acids, A500, Michaelis-Menten fit; assay type: biochemical; settings: 50 mM HEPES pH 8.0, 65 °C; substrate 0.195 to 25 mM; metal addition not stated
T1 construct: homodimer; motifs 76HHPEL80 and 267HEXXH271
Description: Cd-ninhydrin assay of released amino acids, A500, Michaelis-Menten fit on ChtCP

[1] = target: ChtCP, M32 family metallocarboxypeptidase from Chitinophaga sp. CB10 (Chitinophaga sp. CB10); assay: SEC; HiLoad Superdex 200 16/60, 20 mM Tris-HCl pH 8, 200 mM NaCl, 0.5% glycerol, 4 °C, 1 mL/min; elution volume compared with mass standards

T1 sequence (A0A822ZZF9 entry or part of it): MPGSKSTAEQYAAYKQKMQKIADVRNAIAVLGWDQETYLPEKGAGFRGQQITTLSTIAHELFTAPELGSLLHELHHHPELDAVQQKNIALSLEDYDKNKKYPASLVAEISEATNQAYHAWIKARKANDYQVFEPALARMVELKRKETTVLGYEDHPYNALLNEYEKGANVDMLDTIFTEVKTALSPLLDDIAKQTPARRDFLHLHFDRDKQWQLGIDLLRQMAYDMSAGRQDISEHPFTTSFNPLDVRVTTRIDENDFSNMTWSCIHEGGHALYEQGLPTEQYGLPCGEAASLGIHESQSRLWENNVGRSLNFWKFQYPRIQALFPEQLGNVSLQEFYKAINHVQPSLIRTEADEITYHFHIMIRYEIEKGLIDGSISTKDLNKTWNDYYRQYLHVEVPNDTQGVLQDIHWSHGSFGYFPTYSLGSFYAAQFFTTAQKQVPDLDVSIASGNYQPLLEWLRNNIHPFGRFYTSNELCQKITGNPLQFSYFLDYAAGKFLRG

Row | Compound | Km (ChtCP) [mM] | stoichiometry N [1]
1 | C[C@H](NC(=O)[C@H](C)NC(=O)OCc1ccccc1)C(=O)O [ZAA, benzyloxycarbonyl Ala-Ala] (Cbz-Ala-Ala-OH) | 28.1 | –
2 | C[C@H](NC(=O)OCc1ccccc1)C(=O)N[C@@H](CC(N)=O)C(=O)O [ZAN, benzyloxycarbonyl Ala-Asn] (Cbz-Ala-Asn-OH) | 34.1 | –
3 | C[C@H](NC(=O)OCc1ccccc1)C(=O)N[C@@H](CCCNC(=N)N)C(=O)O [ZAR, benzyloxycarbonyl Ala-Arg] (Cbz-Ala-Arg-OH) | 3.51 | –
4 | C[C@H](NC(=O)OCc1ccccc1)C(=O)N[C@@H](Cc1c[nH]c2ccccc12)C(=O)O [ZAW, benzyloxycarbonyl Ala-Trp] (Cbz-Ala-Trp-OH) | 1.1 | –
5 | ChtCP, M32 family metallocarboxypeptidase from Chitinophaga sp. CB10 (enzyme) | – | 2
